These results are taken from US12351574B2, “Selective ligands for modulation of GIRK channels” (Northeastern University, priority 2018, dated 2025).

The data set is described as follows: novel object recognition (NOR) test. Type of data set: in vivo, rat. The settings on record: 10 and 30 mg/kg. On the procedure: Novel object recognition test (NORT): Novel object recognition test was performed in an open-field box measuring 100×100×20 cm as previously described. Prior to testing, the rats were allowed to explore the box for 5 min per day for 3 consecutive days with no objects present. Testing consisted of two 2 min trials. During a familiarization trial, two identical objects (plastic cylinders 6 cm in diameter and 12 cm tall in white and red) were placed in two adjacent corners. The animal was then released against the center of the opposite wall with its back to the objects. This was done to prevent coercion to explore the objects. The animals were regarded to be exploring when they were facing, sniffing, or biting the object with nose and/or forepaws. Immediately after familiarization, the rats received intraperitoneal (i.p.) injections of vehicle or ligands and were returned to its home cage. After a waiting period of 3 h (|T|=3 h), the rat was placed in the box again and test trial was performed. […] The times spent in exploring each object during both trials were recorded manually by using a stopwatch. […] Discrimination index (DI) was used to measure object recognition and is calculated as the difference in time exploring the novel (TN) versus familiar object (TF), then dividing this value by the total time spent exploring the two objects in the test trial. […]

As to `Cc1cc(NC(=O)Nc2ccc(Br)s2)n(-c2ccccc2)n1` [GAT1508, 1-(5-bromothiophen-2-yl)-3-(3-methyl-1-phenyl-1H-pyrazol-5-yl)urea], the “discrimination index (in words)” value is given as “similar”.
